Numbers after ± are expanded uncertainties.
Conditions: Liquid

SMILES	vapor or sublimation pressure (343.15 K, Transpiration method) [kPa]	vapor or sublimation pressure (353.15 K, Transpiration method) [kPa]	vapor or sublimation pressure (373.15 K, Transpiration method) [kPa]	vapor or sublimation pressure (393.15 K, Transpiration method) [kPa]	vapor or sublimation pressure (423.15 K, Transpiration method) [kPa]	vapor or sublimation pressure (313.15 K, Transpiration method) [kPa]	vapor or sublimation pressure (333.15 K, Transpiration method) [kPa]	vapor or sublimation pressure (350.9 K, Closed cell (Static) method) [kPa]	vapor or sublimation pressure (361.52 K, Closed cell (Static) method) [kPa]	vapor or sublimation pressure (371.6 K, Closed cell (Static) method) [kPa]	vapor or sublimation pressure (381.69 K, Closed cell (Static) method) [kPa]	vapor or sublimation pressure (391.77 K, Closed cell (Static) method) [kPa]	vapor or sublimation pressure (401.71 K, Closed cell (Static) method) [kPa]	vapor or sublimation pressure (411.72 K, Closed cell (Static) method) [kPa]	vapor or sublimation pressure (421.57 K, Closed cell (Static) method) [kPa]
CCCCOC(=O)c1ccccc1C(=O)OCc1ccccc1 [benzyl butyl 1,2-benzenedioate]	1.4e-05 ± 2e-06	5.6e-05 ± 9e-06	0.00039 ± 5e-05	0.0022 ± 0.00031	0.0238 ± 0.0034										
COC(=O)c1ccccc1C(=O)OC [dimethyl 1,2-benzenedicarboxylate]		0.0332 ± 0.0022	0.122 ± 0.007	0.391 ± 0.024	1.668 ± 0.09	0.00141 ± 0.00023	0.00789 ± 0.00067	0.0297 ± 0.0019	0.0589 ± 0.0037	0.1104 ± 0.0069	0.1986 ± 0.012	0.3453 ± 0.021	0.5751 ± 0.035	0.9413 ± 0.038	1.491 ± 0.06

Reference: the NIST ThermoML archive (doi:10.1016/j.jct.2018.11.015)
